Measured values published in patent US12427134B2, “Methods of reducing the risk of cardiovascular events in a subject with atrial fibrillation and/or atrial flutter” (priority 2019, dated 2025).

System: hypertriglyceridemic patients with cardiovascular disease or at high risk for cardiovascular disease
Experiment: REDUCE-IT: subgroup analyses of the primary and key secondary endpoints
Type: in vivo, human
Conditions: for Primary endpoint, patients with event (%) / Time to primary endpoint, HR (95% CI) AMR101/Placebo / Primary endpoint, patients with event n/N: ITT
Method: Exploratory Subgroup Analyses: Analyses of the effects that patients off study drug and withdrawn from study have on the primary endpoint were performed. Subgroup analyses of the primary and key secondary endpoints were performed as described for the primary endpoint. For each subgroup, Kaplan-Meier estimates, the log-rank test stratified by stratification factors used at randomization (except where the subgroup was a stratification factor), and HRs and CIs from the Cox proportional hazards model as specified for the primary efficacy endpoint, were summarized by treatment group. Demographic, disease, treatment, and baseline lipid and lipoproteins parameters were explored.
Demographic parameters included: Gender; age at baseline (<65 years and ≥65 years); race (white and nonwhite, or any other subset with at least 10% of the total number of patients); geographical region (Westernized, Eastern European, and Asia Pacific countries); and baseline ezetimibe use (yes/no).
Disease parameters included: CV risk category; the presence/absence of diabetes at baseline; and renal dysfunction at baseline (estimated glomerular filtration rate [eGFR]<60 mL/min/1.73 m^2) using the Chronic Kidney Disease Epidemiology Collaboration (CKD-EPI) equation as follows: eGFR=141×min(Scr/κ,1)^α×max(Scr/κ,1)^[…]^Age×1.018 [if female]×1.159 [if black]
Treatment Parameters included: Statin intensity at baseline (statin type and regimen); and statin intensity categories as defined in ACC/AHA Cholesterol Guidelines (Stone 2013) and patient's 10-year CV Risk Score (Goff 2013).
Baseline Lipid and Lipoprotein Parameter included: LDL-C (by tertile); HDL-C (by tertile, and tertile by gender); TG (by tertile, and tertile by gender); RLP-C (by tertile); TG ≥150 mg/dL and TG <150 mg/dL; TG ≥200 mg/dL and TG <200 mg/dL; TG ≥median, TG <median; combined highest tertile for TG and lowest tertile for HDL-C; gender-specific highest tertile for TG and lowest tertile for HDL-C; TG ≥200 mg/dL with HDL-C ≤35 mg/dL; hsCRP (≤3 mg/L and >3 mg/L) and by gender; hsCRP (≤2 mg/L and >2 mg/L) and by gender; Apo B (by tertile); non-HDL-C (by tertile); baseline hemoglobin A1c (Hb1c) value (<6.5%, ≥6.5%); baseline PAD; and baseline TG levels ≥150 mg/dL with high-density lipoprotein cholesterol (HDL-C) levels ≤40 mg/dL for males and ≤50 mg/dL for females.
A Cox proportional hazard (PH) model as mentioned above but additionally with baseline TG as a covariate were fitted to the data at each interim. Diagnostic plots for the PH assumption were evaluated. The consistency of the treatment effects in subgroups was assessed for the primary and key secondary efficacy endpoints. For each subgroup variable, a Cox PH model with terms for treatment, stratification factors (with the exception of those subgroup variables related to the stratification factors, i.e., CV risk category), subgroup, and treatment-by-subgroup interaction were performed. The main treatment effect was tested with this model. P-values for testing the interaction terms <0.15 were considered significant. Results were presented in a Forest plot.
Subgroup analyses of the primary and key secondary endpoints were performed as described for the primary endpoint. For each subgroup, Kaplan-Meier estimates, the log-rank test stratified by stratification factors used at randomization (except where the subgroup was a stratification factor), and HRs and CIs from the Cox proportional hazards model as specified for the primary efficacy endpoint, were summarized by treatment group. All subgroup analyses were conducted for the ITT, mITT and PP populations.
Of note regarding the following subgroup analyses, per study design, subgroup analyses are underpowered to detect statistically significant results within each individual subgroup, particularly when a subgroup represents less than 50% of the enrolled population, and when a subgroup has low event rates. […]

[1] = Baseline TG <150 mg/dL or HDL-C >40 mg/dL (Males) or >50 mg/dL (Females)
[2] = Baseline TG ≥150 mg/dL and HDL-C ≤40 mg/dL (Males) or ≤50 mg/dL (Females)
[3] = Females, Baseline hsCRP >2 mg/L
[4] = Females, Baseline hsCRP ≤2 mg/L
[5] = Females, HDL-C Highest Tertile (>48 to ≤96.5 mg/dL)
[6] = Females, HDL-C Lowest Tertile (≥21 to ≤41 mg/dL)
[7] = Females, HDL-C Middle Tertile (>41 to ≤48 mg/dL)
[8] = Females, Highest tertile for baseline TG and lowest tertile for baseline HDL-C (No)
[9] = Females, Highest tertile for baseline TG and lowest tertile for baseline HDL-C (Yes)
[10] = Females, TG Highest Tertile (>241.5 to ≤1401 mg/dL)
[11] = Females, TG Lowest Tertile (≥92.5 to ≤186 mg/dL)
[12] = Females, TG Middle Tertile (>186 to ≤241.5 mg/dL)
[13] = Males, HDL-C Highest Tertile (>42 to ≤107.5 mg/dL)
[14] = Males, HDL-C Lowest Tertile (≥17 to ≤35.5 mg/dL)
[15] = Males, HDL-C Middle Tertile (>35.5 to ≤42 mg/dL)
[16] = Males, Highest tertile for baseline TG and lowest tertile for baseline HDL-C (No)
[17] = Males, Highest tertile for baseline TG and lowest tertile for baseline HDL-C (Yes)
[18] = Males, TG Highest Tertile (>253.5 to ≤830 mg/dL)
[19] = Males, TG Lowest Tertile (≥81.25 to ≤191.5 mg/dL)
[20] = Males, TG Middle Tertile (>191.5 to ≤253.5 mg/dL)
[21] = Overall (Males and Females), Baseline hsCRP >2 mg/L
[22] = Overall (Males and Females), Baseline hsCRP ≤2 mg/L
[23] = Overall (Males and Females), HDL-C Highest Tertile (>43.5 to ≤107.5 mg/dL)
[24] = Overall (Males and Females), HDL-C Lowest Tertile (≥17 to ≤36.5 mg/dL)
[25] = Overall (Males and Females), HDL-C Middle Tertile (>36.5 to ≤43.5 mg/dL)
[26] = Overall (Males and Females), Highest tertile for baseline TG and lowest tertile for baseline HDL-C (No)
[27] = Overall (Males and Females), Highest tertile for baseline TG and lowest tertile for baseline HDL-C (Yes)
[28] = Overall (Males and Females), TG Highest Tertile (>250 to ≤1401 mg/dL)

CC/C=C\C/C=C\C/C=C\C/C=C\C/C=C\CCCC(=O)OCC [AMR101, eicosapentaenoic acid ethyl ester]
Key secondary endpoint event, patients (<65 years subgroup): 9.0% | Key secondary endpoint, HR (<65 years subgroup): 0.652 | Primary endpoint event, patients (<65 years subgroup): 14.4% | Primary endpoint, HR (<65 years subgroup): 0.650 | Primary endpoint, patients with event (%) (Baseline HbA1c <6.5%): 16.5% | Time to primary endpoint, HR (95% CI) AMR101/Placebo (Baseline HbA1c <6.5%): 0.793 | Time to primary endpoint, HR (95% CI) AMR101/Placebo (Baseline HbA1c ≥6.5%): 0.701 | Primary endpoint, patients with event (%) [1]: 18.2% | Time to primary endpoint, HR (95% CI) AMR101/Placebo [1]: 0.842 | Primary endpoint, patients with event (%) [2]: 16.5% | Time to primary endpoint, HR (95% CI) AMR101/Placebo [2]: 0.691 | Primary endpoint, patients with event (%) [3]: (15.0) % | Primary endpoint, patients with event n/N [3]: 113/752 | Time to primary endpoint, HR (95% CI) AMR101/Placebo [3]: 0.930 | Primary endpoint, patients with event (%) [4]: (10.0) % | Primary endpoint, patients with event n/N [4]: 41/409 | Time to primary endpoint, HR (95% CI) AMR101/Placebo [4]: 0.621 | Primary endpoint, patients with event (%) [5]: (13.9) % | Primary endpoint, patients with event n/N [5]: 50/359 | Time to primary endpoint, HR (95% CI) AMR101/Placebo [5]: 0.936 | Primary endpoint, patients with event (%) [6]: (16.7) % | Primary endpoint, patients with event n/N [6]: 71/426 | Time to primary endpoint, HR (95% CI) AMR101/Placebo [6]: 0.894 | Primary endpoint, patients with event (%) [7]: (8.8) % | Primary endpoint, patients with event n/N [7]: 33/374 | Time to primary endpoint, HR (95% CI) AMR101/Placebo [7]: 0.609 | Primary endpoint, patients with event (%) [8]: (13.7) % | Primary endpoint, patients with event n/N [8]: 59/431 | Time to primary endpoint, HR (95% CI) AMR101/Placebo [8]: 0.755 | Primary endpoint, patients with event (%) [9]: (15.7) % | Primary endpoint, patients with event n/N [9]: 29/185 | Time to primary endpoint, HR (95% CI) AMR101/Placebo [9]: 0.934 | Primary endpoint, patients with event (%) [10]: (12.3) % | Primary endpoint, patients with event n/N [10]: 46/375 | Time to primary endpoint, HR (95% CI) AMR101/Placebo [10]: 0.734 | Primary endpoint, patients with event n/N [11]: 49/396 | Time to primary endpoint, HR (95% CI) AMR101/Placebo [11]: 0.728 | Primary endpoint, patients with event (%) [12]: (15.1) % | Primary endpoint, patients with event n/N [12]: 59/390 | Time to primary endpoint, HR (95% CI) AMR101/Placebo [12]: 1.077 | Primary endpoint, patients with event (%) (Males, Baseline hsCRP >2 mg/L): (21.5) % | Time to primary endpoint, HR (95% CI) AMR101/Placebo (Males, Baseline hsCRP >2 mg/L): 0.772 | Primary endpoint, patients with event (%) (Males, Baseline hsCRP ≤2 mg/L): (16.4) % | Time to primary endpoint, HR (95% CI) AMR101/Placebo (Males, Baseline hsCRP ≤2 mg/L): 0.691 | Primary endpoint, patients with event (%) [13]: (20.5) % | Primary endpoint, patients with event n/N [13]: 187/913 | Time to primary endpoint, HR (95% CI) AMR101/Placebo [13]: 0.857 | Primary endpoint, patients with event (%) [14]: (19.0) % | Time to primary endpoint, HR (95% CI) AMR101/Placebo [14]: 0.652 | Primary endpoint, patients with event (%) [15]: (16.9) % | Primary endpoint, patients with event n/N [15]: 160/945 | Time to primary endpoint, HR (95% CI) AMR101/Placebo [15]: 0.717 | Primary endpoint, patients with event (%) [16]: (18.1) % | Time to primary endpoint, HR (95% CI) AMR101/Placebo [16]: 0.693 | Primary endpoint, patients with event (%) [17]: (19.9) % | Primary endpoint, patients with event n/N [17]: 90/453 | Time to primary endpoint, HR (95% CI) AMR101/Placebo [17]: 0.632 | Primary endpoint, patients with event (%) [18]: (18.9) % | Primary endpoint, patients with event n/N [18]: 181/960 | Time to primary endpoint, HR (95% CI) AMR101/Placebo [18]: 0.671 | Primary endpoint, patients with event (%) [19]: (19.0) % | Primary endpoint, patients with event n/N [19]: 185/972 | Primary endpoint, patients with event (%) [20]: (18.6) % | Primary endpoint, patients with event n/N [20]: 185/993 | Time to primary endpoint, HR (95% CI) AMR101/Placebo [20]: 0.741 | Primary endpoint, patients with event (%) [21]: (19.2) % | Time to primary endpoint, HR (95% CI) AMR101/Placebo [21]: 0.813 | Primary endpoint, patients with event (%) [22]: (15.0) % | Time to primary endpoint, HR (95% CI) AMR101/Placebo [22]: 0.680 | Primary endpoint, patients with event (%) [23]: 15.9% | Time to primary endpoint, HR (95% CI) AMR101/Placebo [23]: 0.812 | Primary endpoint, patients with event (%) [24]: 18.1% | Time to primary endpoint, HR (95% CI) AMR101/Placebo [24]: 0.667 | Primary endpoint, patients with event (%) [25]: 17.6% | Time to primary endpoint, HR (95% CI) AMR101/Placebo [25]: 0.800 | Primary endpoint, patients with event (%) [26]: (16.3) % | Time to primary endpoint, HR (95% CI) AMR101/Placebo [26]: 0.679 | Primary endpoint, patients with event (%) [27]: (19.1) % | Primary endpoint, patients with event n/N [27]: 118/619 | Time to primary endpoint, HR (95% CI) AMR101/Placebo [27]: 0.670 | Primary endpoint, patients with event (%) [28]: 16.9% | Time to primary endpoint, HR (95% CI) AMR101/Placebo [28]: 0.675
